From US10328075B2, “Method of treatment and compounds for use therein” (Baker Heart and Diabetes Institute, priority 2015, dated 2019)
Like-named read-outs stand apart in the source and are kept apart here.

Target: T1, hFPR1 (Homo sapiens, UniProt P21462)
T1 construct: expressed in transfected cells
T1 sequence (P21462 1-350): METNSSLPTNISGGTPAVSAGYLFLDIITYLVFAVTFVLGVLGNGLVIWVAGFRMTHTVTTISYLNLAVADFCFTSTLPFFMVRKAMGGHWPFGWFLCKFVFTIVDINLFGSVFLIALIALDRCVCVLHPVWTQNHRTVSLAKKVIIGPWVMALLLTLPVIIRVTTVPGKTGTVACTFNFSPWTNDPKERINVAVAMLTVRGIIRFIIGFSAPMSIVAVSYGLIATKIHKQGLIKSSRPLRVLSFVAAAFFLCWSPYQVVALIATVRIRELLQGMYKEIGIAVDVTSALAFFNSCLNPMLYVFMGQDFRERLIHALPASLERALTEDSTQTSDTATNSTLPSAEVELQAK
Assay: ERK1/2 phosphorylation (AlphaScreen SureFire) in hFPR1-FlpIn-CHO cells
Type: cell-based
Description: cDNDA construct and generation of stable cell lines: cDNA in pcDNA3.1^+ encoding the human formyl peptide receptors (FPR) subtypes, hFPR1, hFPR2 and hFPR3 was obtained from Invitrogen. The sequences for 3 hFPR receptors were amplified by PCR and cloned into the Gateway entry vector, pDONR202™, using the BP clonase enzyme mix, according to the manufactures' instructions (Invitrogen Inc, Carlsbad, Calif., USA). All hFPR receptors constructs in pDONR201™ were subsequently transfected into the pEF5/FRT/V5/dest vector using the LR clonase enzyme mix (Invitrogen). Receptor constructs (pEF5/FRT/V5/dest) were used to transfect FIp-In CHO cells as described previously (Valant C et al., PNAS, 2014). Cells were selected using 500 μg/mL hydromycin to generate cell lines stably expressing each receptor construct. Cells were maintained and cultured in high glucose DMEM supplemented with 10% FBS, 16 mM HEPES and 500 μg/mL hydromycin at 37° C. under a humidified atmosphere containing 5% CO2.
In the various assays described below, cells were plated into 96-well transparent cell culture plates at 4×10^4 cells per well, cultured overnight in serum-free media at 37° C. in 5% CO2.
Measurement of extracellular signal regulated kinase 1 and 2 phosphorylation (pERK1/2): Initial ERK1/2 phosphorylation at Thr202/Tyr204 time-course experiments were performed to determine the time at which ERK1/2 phosphorylation was maximal after stimulation by each agonist. Cells were seeded onto transparent 96-well cell culture plates at 4×10^4 cells per well. After 6 h, cells were washed once with PBS, and then incubated in serum-free DMEM overnight, to allow FBS-stimulated phosphorylated ERK1/2 levels to subside. […] 10% (v/v) FBS was used as a positive control, with vehicle controls also included. The reaction was terminated by removal of study drugs and lysis of cells with 100 μL of SureFire lysis buffer (TGR Biosciences). Cell were lysed in SureFire lysis buffer and transferred to 384-well opaque proxiplates. Under low-light conditions, a 1:120 (v:v) dilution of AlphaScreen beads (both acceptor and donor):Surefire reaction buffer was prepared, which was mixed with the activation buffer in a ratio of 6:1 (v:v), respectively. Plates were incubated in the dark at 37° C. for 1 h before the fluorescence signal was measured by a Fusion-α plate reader (PerkinElmer Life and Analytical Sciences, Foster city, CA, USA) with standard AlphaScreen settings. Data were normalized to the maximal response elicited by 10% (v/v) FBS at the same time point.
Receptor mediated pERK1/2 levels were determined using the AlphaScreen™ ERK1/2 SureFire™ kit, as described previously (Keov, P et al., 2014). For all experiments, 10% FBS was used as internal positive control to stimulate pERK1/2, and which the maximum responses were used for normalization of data, whilst vehicle was used as negative control.
Data analysis: All data were analysed using GraphPad Prism 6.0 (GraphPad Software, San Deigo, Calif., USA). Where appropriate, concentration-response curves were fitted to derive the maximal agonist effect (Emax), and the ligand potency estimate (pEC50), where Emax is the maximal possible response of the system (not the agonist), basal is the basal level of response in the absence of agonist, and pEC50 is the negative logarithm of the agonist concentration that gives a response halfway between Emax and basal.
In the present study, FIp-IN CHO cells and Gateway plasmid were obtained from Invitrogen Inc (Carlsbad, Calif., USA). The sequences for all 3 known human FPRs (hFPR1, hFPR2 and hFPR3) were amplified by PCR and cloned into the Gateway entry vector, pDONR202TM, using the BP clonase enzyme mix, according to the manufacturers' instructions. The hFPR pDONR201TM constructs were subsequently transfected into the pEF5/FRT/V5/dest vector using the LR clonase enzyme mix (Invitrogen).

[1] = Table 9, read-out: potency (pEC50) pERK1/2, hFPR1-FlpInCHO cells in vitro (converted)

CC(C)C1C(NC(=O)Nc2ccc(Cl)cc2)C(=O)N(c2ccccc2)N1C (centres unmarked) [BIDI-002]
Time of maximal ERK1/2 phosphorylation in hFPR1-CHO cells (10 μM, pilot timecourse): 5 min
Emax (Table 2, percentage of ERK1/2 phosphorylation elicited by 10% FBS, read-out: Emax (%), ERK1/2 phosphorylation, hFPR1-Flpln-CHO): 61 ± 9%
EC50 (Table 2, read-out: pEC50, ERK1/2 phosphorylation, hFPR1-Flpln-CHO (converted)): 67.6 nM
ΔLog(τ/KA), ERK1/2 phosphorylation, hFPR1-Flpln-CHO (Table 8, normalized transduction coefficient, reference agonist Cmpd43): 0.0
Emax (Table 8, percent of response elicited by 10% FBS, read-out: Emax, ERK1/2 phosphorylation, hFPR1-Flpln-CHO): 61 ± 9%
EC50 (Table 8, read-out: pEC50, ERK1/2 phosphorylation, hFPR1-Flpln-CHO (converted)): 63.1 nM
Log(τ/KA), ERK1/2 phosphorylation, hFPR1-Flpln-CHO (Table 8, transduction coefficient): 7.3 ± 0.1
EC50 [1]: 67.6 nM

Cc1cc(Cc2cccnc2)c(=O)n(CC(=O)Nc2ccc(Cl)cc2)n1 [MIPS-0010396]
EC50 [1]: 676 nM
ERK Rmax (Table 10, receptor not given): 76 ± 2
EC50 (Table 10, receptor not given, values of 10394/10396 equal the hFPR1 values of Table 9, read-out: ERK pEC50 (converted)): 676 nM
